{
  "source": "PubChem BioAssay AID328",
  "about": "(DTP/NCI, 2004)",
  "tested_on": "BDF1 mice, P388 leukemia ip, median survival T/C",
  "assay": "NCI In Vivo Anticancer Drug Screen. Data for tumor model P388 Leukemia (intraperitoneal) in B6D2F1 (BDF1) mice",
  "settings": "endpoint: median survival time, higher = longer survival",
  "procedure,_shortened": "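Survival ratio, drug arm over vehicle arm, in mice with a transplanted tumour.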",
  "key": {"[1]": {"settings": "dose: 50.0 mg/kg/injection, schedule: Q04DX003 (ip), vehicle: saline with Tween-80"}, "[2]": {"settings": "dose: 100.0 mg/kg/injection, schedule: Q04DX003 (ip), vehicle: saline with Tween-80"}, "[3]": {"settings": "dose: 100.0 mg/kg/injection, schedule: Q01DX009 (ip), vehicle: saline"}, "[4]": {"settings": "dose: 50.0 mg/kg/injection, schedule: Q01DX009 (ip), vehicle: saline with Tween-80"}, "[5]": {"settings": "dose: 100.0 mg/kg/injection, schedule: Q01DX009 (ip), vehicle: saline with Tween-80"}, "[6]": {"settings": "dose: 200.0 mg/kg/injection, schedule: Q01DX009 (ip), vehicle: saline with Tween-80"}},
  "note": "“And” between values parts separate entries of the source, which are not always exact repeats. Equal values may be shown once. Toxic doses and inconclusive results are not listed.",
  "data": [
    {"compound": "Cn1nc(NC(=O)C(F)(F)F)c2ncc(-c3ccccc3)nc21", "values": [
      {"measurement": "T/C", "setting": "[1]", "result": "105 % of control"},
      {"measurement": "T/C", "setting": "[2]", "result": "100 % of control"},
      {"measurement": "T/C", "setting": "dose: 200.0 mg/kg/injection, schedule: Q04DX003 (ip), vehicle: saline with Tween-80", "result": "100 % of control"}
    ]},
    {"compound": "CC(C)(C)c1ccc(C(=O)C2CC2)cc1", "values": [
      {"measurement": "T/C", "setting": "dose: 25.0 mg/kg/injection, schedule: Q04DX003 (ip), vehicle: saline with Tween-80", "result": "90 % of control"},
      {"measurement": "T/C", "setting": "[1]", "result": "95 % of control"},
      {"measurement": "T/C", "setting": "[2]", "result": "86 % of control"}
    ]},
    {"compound": "CCCCCCCCCCCCCCCC[N+](C)(C)c1nc(Cl)nc(Cl)n1", "values": [
      {"measurement": "T/C", "setting": "dose: 7.5 mg/kg/injection, schedule: Q01DX009 (ip), vehicle: saline", "result": "110 % of control"},
      {"measurement": "T/C", "setting": "dose: 7.5 mg/kg/injection, schedule: Q04DX003 (ip), vehicle: saline", "result": "109 % of control"},
      {"measurement": "T/C", "setting": "dose: 15.0 mg/kg/injection, schedule: Q01DX009 (ip), vehicle: saline", "result": "105 % of control"},
      {"measurement": "T/C", "setting": "dose: 15.0 mg/kg/injection, schedule: Q04DX003 (ip), vehicle: saline", "result": "113 % of control"},
      {"measurement": "T/C", "setting": "dose: 30.0 mg/kg/injection, schedule: Q01DX009 (ip), vehicle: saline", "result": "105 % of control"},
      {"measurement": "T/C", "setting": "dose: 30.0 mg/kg/injection, schedule: Q04DX003 (ip), vehicle: saline", "result": "109 % of control"},
      {"measurement": "T/C", "setting": "dose: 60.0 mg/kg/injection, schedule: Q04DX003 (ip), vehicle: saline", "result": "118 % of control"}
    ]},
    {"compound": "Cc1cc(NCCCCNCCCNc2cc(C)nc3cc(N)ccc23)c2ccc(N)cc2n1", "values": [
      {"measurement": "T/C", "setting": "dose: 12.5 mg/kg/injection, schedule: Q01DX009 (ip), vehicle: other", "result": "155 % of control"}
    ]},
    {"compound": "CCOC(=O)C1CCCNC1", "note": "(configuration not stated)", "values": [
      {"measurement": "T/C", "setting": "[3]", "result": "104 % of control"},
      {"measurement": "T/C", "setting": "dose: 100.0 mg/kg/injection, schedule: Q04DX003 (ip), vehicle: saline", "result": "95 % of control"},
      {"measurement": "T/C", "setting": "dose: 200.0 mg/kg/injection, schedule: Q01DX009 (ip), vehicle: saline", "result": "100 % of control"},
      {"measurement": "T/C", "setting": "dose: 200.0 mg/kg/injection, schedule: Q04DX003 (ip), vehicle: saline", "result": "91 % of control"},
      {"measurement": "T/C", "setting": "dose: 400.0 mg/kg/injection, schedule: Q01DX009 (ip), vehicle: saline", "result": "112 % of control"},
      {"measurement": "T/C", "setting": "dose: 400.0 mg/kg/injection, schedule: Q04DX003 (ip), vehicle: saline", "result": "87 % of control"}
    ]},
    {"compound": "CC[C@@H]1C[C@H]2CC3c4c(c5cc(OC)ccc5n4C)CCN(C2)C31", "values": [
      {"measurement": "T/C", "setting": "[4]", "result": "102 % of control"},
      {"measurement": "T/C", "setting": "[5]", "result": "105 % of control"},
      {"measurement": "T/C", "setting": "[6]", "result": "102 % of control"}
    ]},
    {"compound": "N=C(N)c1ccc(Nc2ccc(C(=N)N)cc2)cc1", "values": [
      {"measurement": "T/C", "setting": "dose: 3.0 mg/kg/injection, schedule: Q01DX010 (ip), vehicle: saline", "result": "100 % of control"},
      {"measurement": "T/C", "setting": "dose: 6.0 mg/kg/injection, schedule: Q01DX010 (ip), vehicle: saline", "result": "91 % of control and 95 % of control"},
      {"measurement": "T/C", "setting": "dose: 12.0 mg/kg/injection, schedule: Q01DX010 (ip), vehicle: saline", "result": "91 % of control and 100 % of control"},
      {"measurement": "T/C", "setting": "dose: 24.0 mg/kg/injection, schedule: Q01DX010 (ip), vehicle: saline", "result": "95 % of control"}
    ]},
    {"compound": "Cc1[nH]c(=O)[nH]c(=O)c1I", "values": [
      {"measurement": "T/C", "setting": "[4]", "result": "105 % of control"},
      {"measurement": "T/C", "setting": "[5]", "result": "99 % of control"},
      {"measurement": "T/C", "setting": "[6]", "result": "101 % of control"}
    ]},
    {"compound": "CSCCC1NC(=O)C(/C(C)=N\\NC(N)=O)=C1O", "note": "(configuration not stated)", "values": [
      {"measurement": "T/C", "setting": "[4]", "result": "108 % of control"},
      {"measurement": "T/C", "setting": "[5]", "result": "115 % of control"},
      {"measurement": "T/C", "setting": "[6]", "result": "92 % of control"}
    ]},
    {"compound": "NCCc1ccc(O)c(O)c1", "values": [
      {"measurement": "T/C", "setting": "dose: 37.5 mg/kg/injection, schedule: Q01DX009 (ip), vehicle: saline", "result": "101 % of control and 120 % of control"},
      {"measurement": "T/C", "setting": "dose: 75.0 mg/kg/injection, schedule: Q01DX009 (ip), vehicle: saline", "result": "114 % of control"},
      {"measurement": "T/C", "setting": "dose: 150.0 mg/kg/injection, schedule: Q01DX009 (ip), vehicle: saline", "result": "111 % of control"},
      {"measurement": "T/C", "setting": "dose: 300.0 mg/kg/injection, schedule: Q01DX009 (ip), vehicle: saline", "result": "158 % of control"}
    ]},
    {"compound": "CCOC(=O)c1cc(C(=O)OCC)c(=O)oc1OCC", "values": [
      {"measurement": "T/C", "setting": "dose: 25.0 mg/kg/injection, schedule: Q01DX009 (ip), vehicle: saline", "result": "118 % of control"},
      {"measurement": "T/C", "setting": "dose: 50.0 mg/kg/injection, schedule: Q01DX009 (ip), vehicle: saline", "result": "104 % of control"},
      {"measurement": "T/C", "setting": "[3]", "result": "118 % of control"}
    ]},
    {"compound": "COc1cc2c(cc1OC)[C@]13C[C@H](OC)CC=C1CCN3CCC2", "values": [
      {"measurement": "T/C", "setting": "dose: 10.0 mg/kg/injection, schedule: Q01DX009 (ip), vehicle: alcohol", "result": "86 % of control"},
      {"measurement": "T/C", "setting": "dose: 20.0 mg/kg/injection, schedule: Q01DX009 (ip), vehicle: alcohol", "result": "100 % of control"},
      {"measurement": "T/C", "setting": "dose: 40.0 mg/kg/injection, schedule: Q01DX009 (ip), vehicle: alcohol", "result": "100 % of control"},
      {"measurement": "T/C", "setting": "dose: 80.0 mg/kg/injection, schedule: Q01DX009 (ip), vehicle: alcohol", "result": "95 % of control"}
    ]},
    {"compound": "CC(C(=O)O)c1ccccc1", "note": "(configuration not stated)", "values": [
      {"measurement": "T/C", "setting": "dose: 50.0 mg/kg/injection, schedule: Q01DX009 (ip), vehicle: other", "result": "101 % of control"},
      {"measurement": "T/C", "setting": "dose: 100.0 mg/kg/injection, schedule: Q01DX009 (ip), vehicle: other", "result": "106 % of control"},
      {"measurement": "T/C", "setting": "dose: 200.0 mg/kg/injection, schedule: Q01DX009 (ip), vehicle: other", "result": "110 % of control"}
    ]}
  ]
}
